# Data as given in patent US4939175A, “Use of N,N-dimethyl-1-[1-(4-chlorophenyl)cyclobutyl]-3-methylbutylamine” (priority 1988, dated 1990).
# pIC50: −log10 of the molar value.
# Columns and labels:
# [1] = system: depletion of norepinephrine induced by 6-hydroxydopamine in rat heart; assay: Depletion of norepinephrine induced by 6-hydroxydopamine in rat heart; type: in vivo, Std: Wistar male rats; conditions: 6-hydroxydopamine 20 mg/kg i.p., control 20 ± 4, non-treatment 425 ± 49, **p < 0.01
# Procedure: Effect of the test samples on the depletion of norepinephrine induced by 6-hydroxydopamine in rat heart.
# The test sample was administered orally to Std: Wistar male rats and after 30 minutes, 6-hydroxydopamine (20 mg/kg) was injected intraperitoneally.
# At 16 hours after injection of 6-hydroxydopamine, the rats were killed. The whole heart was rapidly removed and homogenized in 0.05M perchloric acid with isoproterenol (10 mg/ml) as an internal standard. The homogenate was centrifuged and then the amount of norepinephrine in the supernatant was determined by means of high performance liquid chromatography with electrochemical detection.
# Desipramine was used as the reference drug and distilled water was used as control sample.
# [2] = system: re-uptake of ^3 H-dopamine; assay: Re-uptake of 3H-dopamine in vitro (synaptosomes, P2 fraction of whole brain); type: biochemical, Std: Wistar strain male rat; conditions: Experiment I, rat brain synaptosomes, 37° C., 20 minutes
# Procedure: Effect of the test samples on the re-uptake of ^3 H-dopamine in vitro
# P2 fraction was prepared from the whole brain of Std: Wistar strain male rat. […] The obtained mixture was incubated at 37° C. for 20 minutes and then subjected to the suction filtration with Whatman GF/B filter paper.
# The obtained filter paper was put in a vial containing 10 ml of toluene type scintillator and its radioactivity was measured by means of liquid scintillation counter. The amount of the specific re-uptake of ^3 H-dopamine was obtained by subtracting the amount of re-uptake at 0° C. as blank.
# [3] = system: sleeping time induced by thiopental; assay: Sleeping time induced by thiopental; type: in vivo, Std: Wistar male rats; conditions: thiopental 40 mg/kg i.v., control 500.8 ± 12.0, **p < 0.01
# Procedure: Effect of the test samples on the sleeping time induced by thiopental
# The test sample was administered orally to Std: Wistar male rats, and at 60 minutes later, sodium thiopental (40 mg/kg) was injected intravenously.
# The duration of sleeping time was determined as the time period between the injection of thiopental and return of the righting reflex.
# Distilled water was used as control sample.
smiles,measurement,setting,value
"CC(C)CC(N(C)C)C1(c2ccc(Cl)cc2)CCC1.Cl (stereo not drawn) [Test compound, N,N-dimethyl-1-[1-(4-chlorophenyl)cyclobutyl]3-methylbutylamine hydrochloride]",Amount of Norepinephrine,[1]; 0.625 mg/kg oral,169 ± 34 ng/g
same,Amount of Norepinephrine,[1]; 1.25 mg/kg oral,247 ± 49 ng/g
same,Amount of Norepinephrine,[1]; 2.5 mg/kg oral,306 ± 27 ng/g
same,pIC50,[2],5.70
same,Sleeping time,[3]; 10 mg/kg oral,345.6 ± 82.2 s
same,Sleeping time,[3]; 30 mg/kg oral,338.5 ± 43.7 s
